Results as given in patent US10947276B2, “Cell penetrating peptides with improved internalization properties” (SORBONNE UNIVERSITE, priority 2016, dated 2021).

Legend:
[1] = Peptide stability in human serum by MALDI-TOF mass spectrometry; assay type: in vitro ADME; conditions: for stability (integrity) compared to control Mut3DPT: 37° C., human serum/plasma, 0 to 24 h
Protocol: A) Mut3DPT, Mut4DPT, Mut5DPT, Mut6DPT and Mut7DPT peptides were incubated at 37° C. in human serum for different periods of time and their integrity (percentage of intact peptide) were analyzed by mass spectrometry. Similar results were obtained in two independent experiments.
FIG. 5. Mut3DPT, Tat, Penetratin and R8 were treated and analyzed as above. The stability is referred to the intensity of the peaks.
Mut3DPT, as well as Mut4DPT, Mut5DPT, Mut6DPT and Mut7DPT were incubated at 37° C. in 250 μl human serum for different periods of time. Samples were collected and peptide degradation stopped by freezing. Peptides were extracted from collected samples using the ProteoMiner Protein Enrichment System (Bio-Rad). Peptide integrity (percentage of intact peptide) was analyzed by mass spectrometry using a MALDI-TOF (Brücker Autoflex II) following their standard protocols. Every measurement was performed by triplicate. MS data were analyzed using appropriate software (Clinprot tools, Flex analysis, Brücker).
The inventors have analyzed whether these new generated peptides have enhanced stability in plasma, compared to the control Mut3DPT. The peptides were incubated for different periods of time (from 0 to 24 h) at 37° C. with human plasma and their stability was analyzed by mass spectrometry (MS). […] The synthetic peptides Mut5DPT, Mut6DPT and Mut7DPT are also very stable to proteases degradation, compared to the control peptide Mut3DPT. Taken together, we can conclude that there is no modification of the stability upon 24 h of incubation with human serum.

[2] = tested on: MCF-7 cells; test: Intracellular detection of FITC-labelled peptides by FACS; assay type: cell-based, human; conditions: MCF-7 (similar in Jurkat); for kinetic of internalization compared to control peptide Mut3DPT: 50 μM, different periods of time
Protocol: (§1) MCF-7 or Jurkat cell lines were cultured in the presence or in the absence of Mut3DPT (Panel A), Mut4DPT (Panel B), Mut5DPT (Panel C), Mut6DPT (Panel D) or Mut7DPT (Panel E) at 50 μM for different periods of time. The intensity of the FITC fluorescence due to the shuttle internalization was measured by FACS. The results presented in the figure correspond to MCF-7 cells. Similar results were obtained using Jurkat cell line.
as §1, with “different concentrations” for “50 μM”, “4 h.” for “different periods of time.”
Jurkat and MCF-7 cells were incubated with different concentrations of FITC-labeled peptides, then washed and analyzed by FACS in order to detect the intensity of fluorescence into the cells. Similarly, Jurkat and MCF-7 cells were incubated with a given peptide concentration at different times and after washing, cells were analyzed by FACS to estimate the intensity of fluorescence into the cells.
The inventors incubated the cells (Jurkat and MCF-7) with the peptides at different concentrations and different times and analyzed the intensity of the fluorescence into the cells by FACS. The result of kinetic of time incubation is shown on FIG. 1 and the kinetic of peptide concentration is shown on FIG. 2.

[3] = tested on: MDA-MB231 cells; test: Intracellular localization of FITC-labelled peptides by fluorescence microscopy; assay type: cell-based, human; conditions: 30 μM, 4 h
Protocol: MDA-MB231 cells (3×10^4 cells/ml) were grown on cover slips and incubated 4 h with 30 μM of FITC-labelled peptides. Cells were washed 3 times with PBS, fixed with 4% paraformaldeyde (PFA) and analyzed by fluorescence microscopy. Cells treated with mut7DPT-FITC were used as control.
MDA-MB231 cells (3×10^4 cells/ml) were grown on cover slips and incubated with 30 μM of peptide for different periods of time. Cells were washed 3 times with PBS, fixed with 4% PFA and analyzed by fluorescence microscopy.
MDA-MB231 cells (3×10^4 cells/ml) were incubated in cover slips for 3 h with 15 μM of the FITC-labelled peptides associated to a cargo (TEAD or YAP peptides). Cells were washed 3 times with PBS, fixed with 4% PFA and analyzed by fluorescence microscopy.
(§2) For intracellular localization of FITC-labelled peptides, MDA-MB231 was seeded in an 8-well Labtek (Thermo Fischer) at a density of 3×10^4 cells/well. Cells were treated with different concentrations of FITC-labelled peptides for different times. Cells were fixed or not with 4% of formaldehyde for 15 min at room temperature. Samples were washed twice with PBS and mounted in mounting solution containing DAPI. Images were captured with a fluorescence microscopy (Olympus Japan) using 63× magnification objective.

[4] = tested on: MDA-MB231 cell line; test: Toxicity of CPP-NLS peptides by FACS; conditions: 25 and 50 μM, 4 h of incubation
[5] = tested on: MCF-7, PBMC; test: Internalization of shuttles by fluorescence microscopy, mass spectrometry and flow cytometry; assay type: cell-based, human; conditions: MCF-7 25 μM (microscopy), 100 μM (MS); B cells of PBMC 100 μM 4 h
Protocol: A) MCF-7 cells were grown on coverslips and incubated 1 h at 37° C. with 25 μM of FITC-labelled peptides. Cells were washed 3 times with PBS, fixed with 4% paraphormaldeyde (PFA) and analyzed by fluorescence microscopy. Quantification of the microscopy images is shown. B) MCF7 were grown as above and incubated for different periods of time at 37° C. with 25 μM of FITC-labelled shuttles. Cells were treated as above and analyzed by fluorescence microscopy.
MCF-7 cells were cultured 4 h with 100 μM of each shuttle. After several washing steps, they were lysed and the extracts centrifuged. The intracellular peptide was detected by MS. Pure peptide was used as a control of molecular weight.
A) B cells were isolated (anti-hCD19-APC antibody) from peripheral blood mononuclear cells (PBMC) of healthy donors (HD) or B) chronic lymphocytic leukemia (CLL) patients. Cells were incubated 4 h with 100 μM of the FITC-labelled shuttles. The mean fluorescence intensity was detected by flow cytometry. Non treated cells were used as control.
Peripheral blood mononuclear cells from healthy (HD) donors or chronic lymphocytic leukaemia patients (CLL) were treated with FITC-labelled peptides and them, cells were harvested and washed twice with PBS to remove the extracellular unbound peptide. FITC fluorescence intensity of internalized peptide was measured by flow cytometry (BD Biosciences) by acquiring 10,000 live cells. B cells were selected with anti hCD19-APC labelled antibody. Experiments were carried out three times in duplicate. Untreated cells were used as control.
as §2, with “MDA-MB231 or MCF7 cells were” for “MDA-MB231 was”, “of 2×10^4” for “of 3×10^4”, “fixed” for “fixed or not”
To detect the internalization of the peptides, breast cancer cell line MCF-7 cells were seeded in a 6-well plate at a density of 1×10^6 cells/well in DMEM medium supplemented with 10% FCS. Cells were treated with 100 μM of each shuttle for 4 h at 37° C., then cells were washed once with PBS. Cell pellet was collected by detaching with Trypsin EDTA following several washing step with PBS. Cells were resuspended in lysis buffer (Tris-HCl 50 mM, NaCl 20 mM, pH 8.0, supplemented with protease inhibitors) and lysed with Glass/Teflon potter (Elvehjem homogenizers), then centrifuged for 20 min at 16,000 g at 4° C. The peptides in the supernatant were concentrated with Ziptips (Millpore, ZTC18S096) according to the manufacture's protocol. The internalization of peptide was detected by mass spectrometry (MS) using a MALDI-TOF (Brucker Autoflx II). MS data were analyzed using appropriate software (Clinprot tools, Flex analysis, Brucker).
The inventors incubated the cells (MCF-7, PBMC) with the peptides at different concentrations (respectively 25 μM, and 100 μM) and analyzed the presence of the shuttles into the cells by fluorescence microscopy, mass spectrometry (MS) and flow cytometry.

[6] = tested on: MDA-MB231 cells; test: Apoptosis by Annexin V-FITC staining, shuttles associated to TEAD cargo; assay type: cell-based, human; conditions: 10 and 25 μM, 4 h or 24 h
Protocol: MDA-MB231 cells (5×10^4 cells/ml) were cultured in the presence of different concentrations of shuttles or nuclear localization shuttles associated to the cargo TEAD for 4h or 24h (Non-treated, Panel A; Mut3DPT-TEAD, Panel B; NLS18, Panel C; NLS23, Panel D; NLS18 TEAD, Panel E, NLS23 TEAD, Panel F). Apoptosis was estimated by Annexin V-FITC staining. Cells treated with shuttle without cargo or nuclear localisation signal (NLS) were used as control. Standard deviation is shown.
The apoptosis induction of the different shuttles associated to a cargo (TEAD and YAP binding sites) was analyzed by annexinV-FITC staining (e Biosciences). Human breast cancer cell line MDA-MB231 was treated with different concentrations of peptide for 4 h and 24 h. After the treatment, cells were harvested, washed and treated according to the manufacturer protocol. The level of apoptosis was measured by flow cytometry (BD Biosciences, FACS Canto.
We further analyzed whether the weak apoptotic effect of the mut3DPT-TEAD peptide was increased in the new generated tri-functional peptides. Cells were cultured for 4 h or 24 h with 10 and 25 μM of NLS-18 or NLS-23 and apoptosis estimated by Annexin staining (FIG. 16). The association of TEAD interfering peptide to the NLS18 or NLS23 peptides strongly increases the apoptotic effect, compared to the control peptide.

Molecule	time to plateau of internalization ([2]; 50 μM FITC-labelled peptide) [min]	internalization compared to the control peptide Mut3DPT [5]	internalization, ranking among the new peptides [5]	stability (integrity) compared to control Mut3DPT [1]	kinetic of internalization compared to control peptide Mut3DPT [2]	other results
N=C(N)NCCC[C@H](NC(=O)[C@H](CCCNC(=N)N)NC(=O)[C@H](CCCNC(=N)N)NC(=O)[C@H](CCCNC(=N)N)NC(=O)[C@H](CCCNC(=N)N)NC(=O)[C@H](CCCNC(=N)N)NC(=O)[C@H](CCCNC(=N)N)NC(=O)[C@@H](N)CCCNC(=N)N)C(=O)O [Peptide R8, reference compound]	–	–	–	–	–	degradation compared to control Mut3DPT ([1]; 6 h incubation with human serum at 37° C.): stronger degradation; degradation ([1]; 24 h incubation with human serum): extensively degraded
KKKKKWKKWKKK (Shuttle peptide Mut7DPT)	30	better internalization	a better internalization	very stable	–	nuclear staining [3]: does not show nuclear staining; toxicity [4]: none of the peptides show toxicity
KKWKKWKKWKK (Shuttle peptide Mut5DPT)	–	better internalization	–	very stable	better internalization	–
RRWRRWRRWRR (Shuttle peptide Mut6DPT)	15	better internalization	a better internalization	very stable	rapidly internalized	share of the total fluorescence achieved one minute after incubation ([2]; 50 μM FITC-labelled peptide, 1 min): Around 50%
VKKKKIKAEIKI-RLQLVEFSAFVEPPDAVD (VKKKKIKAEIKIRLQLVEFSAFVEPPDAVD; Mut3DPT-TEAD)	–	–	–	–	–	apoptotic effect [6]: weak
VKKWKIKWWIKI (shuttle peptide Mut4DPT)	–	better internalization	–	as stable as the parental peptide	better internalization	–
